According to patent US20220348590A1, “CYCLOOXYGENASE-2 INHIBITORS AND USES THEREOF” (The Board Institute, Inc., priority 2019, published 2022):
pIC50: −log10 of the molar value. Where two headings read alike, the source gives them in different places.

Columns and labels:
ovine COX-1 (oCOX-1) = target: T1, ovine COX-1 (oCOX-1) (Ovis aries, UniProt P05979); assay: LCMS-based COX-1 enzymatic inhibition assay (PGE2 quantification); assay type: biochemical
T1 construct: purchased Cayman Chemicals (Ann Arbor, Mich.)
T1 sequence (P05979 25-600): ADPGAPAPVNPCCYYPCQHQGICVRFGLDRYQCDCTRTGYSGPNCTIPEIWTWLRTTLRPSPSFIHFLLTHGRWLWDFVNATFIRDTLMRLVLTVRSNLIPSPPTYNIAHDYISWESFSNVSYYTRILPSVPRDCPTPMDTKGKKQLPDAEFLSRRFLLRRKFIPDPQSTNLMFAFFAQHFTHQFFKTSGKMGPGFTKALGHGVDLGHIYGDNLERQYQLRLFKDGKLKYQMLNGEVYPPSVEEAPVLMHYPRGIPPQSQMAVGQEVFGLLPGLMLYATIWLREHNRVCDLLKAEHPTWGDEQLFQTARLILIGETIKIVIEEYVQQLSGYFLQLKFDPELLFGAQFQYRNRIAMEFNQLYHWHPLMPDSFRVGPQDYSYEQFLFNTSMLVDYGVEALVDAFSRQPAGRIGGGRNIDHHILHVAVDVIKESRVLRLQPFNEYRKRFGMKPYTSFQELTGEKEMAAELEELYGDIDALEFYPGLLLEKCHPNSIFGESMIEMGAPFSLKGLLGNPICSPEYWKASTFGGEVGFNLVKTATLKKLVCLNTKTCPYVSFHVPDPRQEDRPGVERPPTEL
Experimental: We have adapted a previously reported cyclooxygenase enzymatic assay utilizing LCMS quantification of PGE2 as the product of COX-1 and COX2 catalyzed conversion of arachidonic acid to evaluate the binding properties of newly synthesized ligands [Cao, 2011]. These optimized and miniaturized (384-well plates) LCMS-based COX-1 and COX2 enzymatic assays enabled us to quickly evaluate newly synthesized ligands for COX2 binding affinity and selectivity vs COX-1. Using a shorter ligand-enzyme incubation time in the LCMS assay (2 minutes vs 10 minutes) also permitted us to prioritize ligands with faster binding kinetics. Considering the relatively slow on-rate kinetics of known coxibs, due to their 3-step binding mechanism [Marnett, 2009], we believe that optimizing this critical parameter will be key to the successful development of a COX2 PET tracer. Using these enzymatic assays, we have evaluated>200 newly synthesized ligands against COX2 and >20 ligands against COX-1. Another critical property necessary for a good PET radiotracer is to have low non-specific binding (NSB) to increase the free fraction and maximize the signal to noise ratio. This property can be evaluated using in-vitro protein binding assays, and we have now evaluated>50 newly synthesized ligands in mouse, rat and human plasma protein binding (PPB) assays as well as >15 ligands in a mouse brain protein binding (BPB) assay.
Ovine COX-1 (oCOX-1), ovine COX2 (oCOX2), human recombinant COX2 (hCOX2), arachidonic acid, PGE2, d4-PGD2, and […] (labeled with deuterium atoms at positions 3 and 4) were purchased from Cayman Chemicals (Ann Arbor, Mich.). The cofactors (−)epinephrine and hematin, and the COX inhibitors indomethacin, resveratrol and diclofenac were purchased from Sigma-Aldrich (St. Louis, Mo.). Celecoxib was purchased from 3B PharmaChem International (Wuhan, China). All organic solvents were HPLC grade or better and were purchased from Thermo Fisher (Hanover Park, Ill.). Formic acid was purchased from EMD Chemicals (San Diego, Calif.). Purified water was prepared by using a Millipore Milli-Q purification system (Millipore, Billerica, Mass.). All other chemicals and solvents were ACS reagent grade, unless stated otherwise.
In an Eppendorf tube, 146 μL of 100 mM Tris.HCl (pH 8.0) buffer, 2 μL of 100 μM hematin (co-factor) and 10 μL of 40 mM L-epinephrine (co-factor) were mixed at room temperature. Next, 20 μL of Tris.HCl (pH 8.0) buffer containing 0.2 μg COX2 or 0.1 μg COX-1 (approximately 1 unit of enzyme; 1 unit COX utilizes 1 nmol 02/mg/min at 37° C.) was added, and the solution was incubated at room temperature for 2 min. A 2 μL aliquot of the COX inhibitor in DMSO was added to the enzyme solution and preincubated at 37° C. for 10 min. Negative controls were identical except that 2 μL aliquots of DMSO without inhibitor were used instead.
Each COX reaction was initiated by adding 20 μL of arachidonic acid in Tris.HCl (pH 8.0) buffer to give a final concentration of 5 μM; and the reaction was terminated after 2 min by adding 20 μL of 2.0 M HCl. The surrogate standards d4-PGE2 and d4-PGD2 (10 μL aliquot of 50 ng/mL solution in methanol) were added to correct for errors or degradation during sample handling and for variation in injection volume or instrument response during LC-MS-MS. After 30 min, PGE2, PGD2 and their surrogate standards were extracted from each incubation mixture using 800 μL hexane/ethyl acetate (50:50, v/v). The organic phase was removed, evaporated to dryness, and reconstituted in 100 μL methanol/water (50:50, v/v) for analysis using LC-MS-MS.
The concentration of PGE2 in each sample was measured using LC-MS-MS, and the percent of COX inhibition by each test solution was determined by comparing the amount of PGE2 produced in the experiment with that produced in the negative control incubation. The formation of PGD2 was measured for quality control purposes, since the levels of PGD2 should be proportional to those of PGE2. […]

[1] = target: T2, human recombinant COX2 (hCOX2) (UniProt P35354); assay: LCMS-based COX2 enzymatic inhibition assay (PGE2 quantification); assay type: biochemical; design: COX2 2 minutes pge2/pge2d4 area ratio Avg; other: 2 minutes; readout pge2/pge2d4 area ratio; average; COX2 2 minutes pge2/pge2d4 area ratio Avg; LLE; average LLE; COX2 2 minutes pge2 area (counts) Avg; readout pge2 area (counts); other: 2 min; "ovine COX2 (oCOX2), human recombinant COX2 (hCOX2)"; settings: for pIC50: average
T2 sequence (P35354 1-604): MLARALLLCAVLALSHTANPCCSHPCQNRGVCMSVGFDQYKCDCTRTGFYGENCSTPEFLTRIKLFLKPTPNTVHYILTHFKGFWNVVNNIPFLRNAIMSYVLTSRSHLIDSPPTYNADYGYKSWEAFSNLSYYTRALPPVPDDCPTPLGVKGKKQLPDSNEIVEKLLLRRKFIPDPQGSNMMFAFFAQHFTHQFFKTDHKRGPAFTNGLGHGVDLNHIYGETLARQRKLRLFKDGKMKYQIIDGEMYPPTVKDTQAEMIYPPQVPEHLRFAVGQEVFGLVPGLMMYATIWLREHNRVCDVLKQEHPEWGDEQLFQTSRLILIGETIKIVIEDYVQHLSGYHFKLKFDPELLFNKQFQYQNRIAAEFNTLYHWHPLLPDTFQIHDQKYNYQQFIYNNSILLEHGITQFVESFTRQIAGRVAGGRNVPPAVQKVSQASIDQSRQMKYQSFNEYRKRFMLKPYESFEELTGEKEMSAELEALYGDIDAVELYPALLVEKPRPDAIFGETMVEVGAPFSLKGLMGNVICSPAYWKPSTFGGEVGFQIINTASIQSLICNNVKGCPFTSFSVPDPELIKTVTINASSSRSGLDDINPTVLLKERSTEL
How it was run: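 PGE2 formed from arachidonic acid (final 5 μM, 2 min) was measured by LC-MS-MS against DMSO controls. Enzyme (oCOX-1 0.1 μg or hCOX2 0.2 μg) with hematin/epinephrine cofactors at pH 8.0 was given 10 min at 37 °C with compound first. Twelve-point curves run three times gave IC50.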

[2] = 10 minutes, readout pge2/pge2d4 area ratio, average LLE
[3] = 10 minutes, readout pge2/pge2d4 area ratio, average, read-out: COX1 10 minutes pge2/pge2d4 area ratio Avg. IC50
[4] = 10 minutes, readout pge2 area (counts), average LLE
[5] = 10 minutes, readout pge2 area (counts), average, read-out: COX1 10 minutes pge2 area (counts) Avg. IC50
[6] = 2 minutes, readout pge2/pge2d4 area ratio, average LLE
[7] = 2 minutes, readout pge2/pge2d4 area ratio, read-out: COX2 2 minutes pge2/pge2d4 area ratio Avg. IC50
[8] = 2 minutes, readout pge2 area (counts), average LLE
[9] = 2 minutes, readout pge2 area (counts), read-out: COX2 2 minutes pge2 area (counts) Avg. IC50
[10] = 10 minutes, pge2/pge2d4 area ratio, head of this section not shown, inferred
[11] = 10 minutes, pge2 area (counts), head of this section not shown, inferred
[12] = 10 minutes, pge2 area (counts), head of this section not shown, inferred, read-out: COX1 10 minutes pge2 area (counts) Avg. IC50

SMILES	COX1 10 minutes pge2/pge2d4 area ratio Avg. LLE (ovine COX-1 (oCOX-1); [2])	pIC50 (ovine COX-1 (oCOX-1); [3])	COX1 10 minutes pge2 area (counts) Avg. LLE (ovine COX-1 (oCOX-1); [4])	pIC50 (ovine COX-1 (oCOX-1); [5])	COX2 2 minutes pge2/pge2d4 area ratio Avg. LLE [1, 6]	pIC50 [1, 7]	COX2 2 minutes pge2 area (counts) Avg. LLE [1, 8]	pIC50 [1, 9]	COX2 10 minutes pge2 area (counts) Avg. LLE [1, 4]	pIC50 ([1]; 10 minutes, readout pge2 area (counts), read-out: COX2 10 minutes pge2 area (counts) Avg. IC50)	COX1 10 minutes pge2/pge2d4 area ratio Avg. LLE (ovine COX-1 (oCOX-1); [10])	COX1 10 minutes pge2 area (counts) Avg. LLE (ovine COX-1 (oCOX-1); [11])	pIC50 (ovine COX-1 (oCOX-1); [12])	pIC50 (ovine COX-1 (oCOX-1))
COc1cc(-c2ccc(S(C)(=O)=O)cc2)cc(NCc2cccs2)n1 [Compound 54]	0.5171	4.41	0.394	4.28	3.727	7.59	3.7767	7.62	4.182	8.03				
CS(=O)(=O)c1ccc(-c2ccc3ccn(Cc4ccco4)c3n2)cc1 [Compound 61]					3.446	7.48	3.403	7.43			0.214	0.214		4.28
Cc1coc(CNc2cccc(-c3ccc(S(C)(=O)=O)cc3)n2)c1 [Compound 85]					4.23	7.24	3.951	6.94			1.134	1.134		4.28
CS(=O)(=O)c1ccc(-c2coc3ccc(NCc4cccs4)nc23)cc1 [Compound 39]						7.73		7.74						4.28
Cc1csc(COc2cncc(-c3ccc(S(C)(=O)=O)cc3)n2)c1 [Compound 10]	2.513	5.23	2.529	5.25	5.4246	8.09	5.349	8.02						
CS(=O)(=O)c1ccc(-c2cccc(NCc3ccsc3)n2)cc1 [Compound 11]			0.8485	4.37	4.584	8.07	4.6244	8.09						
CS(=O)(=O)c1ccc(-c2cnc3cnn(Cc4cccs4)c3n2)cc1 [Compound 94]		4.99			4.786	7.15	4.818	7.16			2.552	2.532	4.97	
CS(=O)(=O)c1ccc(-c2cncc(OCc3ccoc3)n2)cc1 [Compound 58]		4.46			5.691	7.51	5.691	7.51			2.5036	2.324		

The remaining compounds from weak to strong by pIC50 [1, 7], led by results:

COX1 10 minutes pge2/pge2d4 area ratio Avg. LLE (ovine COX-1 (oCOX-1); [2])	pIC50 (ovine COX-1 (oCOX-1); [3])	COX1 10 minutes pge2 area (counts) Avg. LLE (ovine COX-1 (oCOX-1); [4])	pIC50 (ovine COX-1 (oCOX-1); [5])	COX2 2 minutes pge2/pge2d4 area ratio Avg. LLE [1, 6]	pIC50 [1, 7]	COX2 2 minutes pge2 area (counts) Avg. LLE [1, 8]	pIC50 [1, 9]	COX2 10 minutes pge2 area (counts) Avg. LLE [1, 4]	pIC50 ([1]; 10 minutes, readout pge2 area (counts), read-out: COX2 10 minutes pge2 area (counts) Avg. IC50)	COX1 10 minutes pge2/pge2d4 area ratio Avg. LLE (ovine COX-1 (oCOX-1); [10])	COX1 10 minutes pge2 area (counts) Avg. LLE (ovine COX-1 (oCOX-1); [11])	pIC50 (ovine COX-1 (oCOX-1); [12])	SMILES	pIC50 (ovine COX-1 (oCOX-1))
	4.77			4.353	7.24	4.328	7.20			1.865	1.853	4.75	CS(=O)(=O)c1ccc(-c2cnc3ccn(Cc4ccco4)c3n2)cc1 [Compound 82]	
	4.50			4.278	7.31	4.291	7.31			1.461			CS(=O)(=O)c1ccc(-c2nc(NCc3cccs3)cnc2C(F)(F)F)cc1 [Compound 76]	
0.04315	4.29	0.2102	4.46	3.462	7.69	3.431	7.63						C[C@H](Oc1cccc(-c2ccc(S(C)(=O)=O)cc2)n1)c1cccs1 (single isomer, unassigned) [Compound 46]	
3.526	6.16	3.306	5.91	5.142	7.73	5.088	7.69						Cc1ncc(-c2ccc(S(C)(=O)=O)cc2)nc1OCc1cccs1 [Compound 38]	
